Experimental findings from patent US20220009914A1, “Analogs of Nitrofuran Antibiotics to Combat Resistance” (The Trustees of Indiana University, priority 2020, published 2022) are described below.

Like-named read-outs stand apart in the source and are kept apart here. A value given as a limit tells only on which side of the number the result lay.

Assay [1] has as its target T1, E. coli GroEL/ES (Escherichia coli, UniProt P0A6F5).
T1 construct: made in house; host or cells: GroEL in NEB 5-alpha E. coli; GroES in E. coli BL21 (DE3)
Briefly: GroEL/ES-mediated dMDH refolding assay in the presence of E. coli NfsB nitroreductase. The class given is biochemical. The procedure: Evaluating compounds for inhibition in the GroEL/ES-mediated dMDH refolding assay and native MDH activity counter-screen in the presence of E. coli NfsB nitroreductase. These assays were performed nearly identically to those mentioned above, but with a couple distinct modifications. For both assays, 10 μg/mL of the E. coli NfsB nitroreductase enzyme (Sigma product #N9284) was added to the initial GroEL/ES-dMDH solution. For the GroEL/ES-dMDH refolding assay, after stamping with compounds, 10 μL of a 2.4 mM NADH solution was added, followed by a 10 minute incubation period at 37° C. to bioactivate the nitrofuran analogs. The remainder of the assay was conducted as in our standard protocol where no NfsB nitroreductase was present. […] For the native MDH activity counter-screen in the presence of E. coli NfsB nitroreductase, the assay was performed as described above for the GroEL/ES-dMDH refolding assay with NfsB; however, compound addition to the assay plates was conducted after the EDTA quench step, followed by a 10 minute incubation period at 37° C. to bioactivate the nitrofuran analogs. […] Results presented represent the averages of IC50 values obtained from at least four replicates in each assay.
Evaluating analogs for inhibiting GroEL/ES-mediated substrate refolding functions in the presence of the E. coli NfsB type-1 nitroreductase. […] However, our standard GroEL/ES-mediated refolding assays and native substrate reporter counter-screens were conducted without nitroreductases present.

Assay [2] concerns Acinetobacter baumannii strain 2208 (ATCC 19606). Briefly: bacterial proliferation assay, A. baumannii. The class given is cell-based. The settings on record: ATCC19606, read-out: Bacterial Proliferation EC50 A. baumannii. The procedure: All compounds were evaluated for inhibiting the proliferation of E. coli and each of the ESKAPE bacteria. Results presented represent the averages of EC50 values obtained from at least four replicates. Evaluating compounds for inhibition of bacterial cell proliferation.
Growth Media: E. coli were grown with LB medium and all ESKAPE bacteria were grown in Brain Heart Infusion (BHI) medium (Becton, Dickinson and Company), with all liquid cultures supplemented with 25 mg/L Ca^2+ and 12.5 mg/L Mg^2+ to mimic physiological free concentrations of these cations. A 10 mg/mL Ca^2+ stock solution was prepared by dissolving 1.84 g of CaCl2.2H2O in 50 mL of deionized water, and a 10 mg/mL Mg^2+ stock solution was prepared by dissolving 4.18 g of MgCl2.6H2O in 50 mL deionized water—filter sterilized using 0.2 μm cellulose-acetate filters. 2.5 mL of the sterile 10 mg/mL Ca^2+ stock and 1.25 mL of the sterile 10 mg/mL Mg^2+ stock solutions were added per 1 L of autoclaved LB or BHI media to obtain 25 mg/L Ca^2+ and 12.5 mg/L Mg^2+ ions, respectively.
General Assay Protocol: Stock bacterial cultures were streaked onto LB or BHI agar plates and grown overnight at 37° C. Fresh aliquots of cation supplemented media were inoculated with single bacterial colonies and the cultures were grown overnight at 37° C. with shaking (240 rpm). The following morning, cultures were diluted 10-fold into fresh media and grown at 37° C. until bacteria had reached mid-log phase growth (OD600˜0.4-0.6). The cultures were then diluted into fresh media to achieve final OD600 readings of 0.017. Aliquots of these diluted cultures (30 μL) were added to clear, flat-bottom 384-well polystyrene plates that were previously stamped with 0.5 μL of test compounds in 20 μL of media (yielding initial OD600=0.01 bacterial cultures). All compounds were tested in dose-response with concentration ranges during the proliferation assays from 100 μM to 46 nM (3-fold dilution series). A second set of baseline control plates were prepared analogously, but without any bacteria added, to correct for possible compound absorbance and/or precipitation. […] Plates were then read at 600 nm using a Molecular Devices SpectraMax Plus384 microplate reader. […] Results presented represent the averages of EC50 values obtained from at least four replicates.
Evaluating analogs for inhibiting the growth of E. coli and the ESKAPE bacteria. Analogs were initially tested for antibacterial efficacy against representative strains of antibiotic-sensitive E. coli and the ESKAPE bacteria. To determine compound efficacy, bacterial proliferation assays were carried out in liquid media culture supplemented with physiological concentrations of free calcium and magnesium cations. For these assays, bacterial cultures (OD600=0.01) were exposed to test compounds in 8-point, 3-fold dilution series (100 μM to 46 nM concentration range), in 384-well plates. After addition of compounds to cultures, the plates were sealed with Breathe-Easy gas permeable membranes and allowed to grow to mid-log phase (OD600˜0.4-0.6), whereupon final OD600 readings were taken to assess for bacterial growth and inhibition.

The mark [3] stands for this setting: with E. coli NfsB nitroreductase, read-out: NfsB-GroEL/ES-dMDH Refolding IC50.

T1 sequence (P0A6F5 2-548): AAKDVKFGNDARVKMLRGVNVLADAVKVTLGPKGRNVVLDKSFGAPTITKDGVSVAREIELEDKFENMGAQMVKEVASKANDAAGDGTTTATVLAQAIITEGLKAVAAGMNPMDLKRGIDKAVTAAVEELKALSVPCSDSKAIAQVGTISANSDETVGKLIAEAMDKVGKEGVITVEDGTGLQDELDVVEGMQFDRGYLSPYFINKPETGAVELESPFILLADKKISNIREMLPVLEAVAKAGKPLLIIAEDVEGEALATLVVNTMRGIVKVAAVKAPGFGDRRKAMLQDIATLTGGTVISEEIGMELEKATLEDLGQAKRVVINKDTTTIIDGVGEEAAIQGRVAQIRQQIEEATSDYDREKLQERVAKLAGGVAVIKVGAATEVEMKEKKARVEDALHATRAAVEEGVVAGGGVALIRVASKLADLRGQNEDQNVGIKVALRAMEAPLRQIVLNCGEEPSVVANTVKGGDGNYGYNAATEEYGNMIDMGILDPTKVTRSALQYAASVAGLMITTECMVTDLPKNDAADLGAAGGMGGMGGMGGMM

Take `CN(C)c1ccc(C(=O)N/N=C/c2ccc(O)c3ncccc23)cc1` [Compound 8, 4-(dimethylamino)-N′-((8-hydroxyquinolin-5-yl)methylene)benzohydrazide]: the IC50 in assay [1] was found to be 25 µM. For the same compound, the EC50 in assay [2] was over 100 µM. As for `O=C(N/N=C/c1ccc([N+](=O)[O-])o1)c1ccc(NS(=O)(=O)c2ccc(Br)cc2)cc1` [Compound 27, 4-bromo-N-(4-(2-((5-nitrofuran-2-yl)methylene)hydrazine-1-carbonyl)phenyl)benzenesulfonamide], in assay [1], the IC50 is 2 µM. The EC50 in assay [2] was over 100 µM.

With `O=C(N/N=C/c1ccc(O)c2ncccc12)c1cccc(Oc2ccccc2)c1` [Compound 11, N′-((8-hydroxyquinolin-5-yl)methylene)-3-phenoxybenzohydrazide], in assay [1], the IC50 was 21 µM. In addition, the EC50 in assay [2] is over 100 µM. Turning to `O=C(N/N=C/c1ccc([N+](=O)[O-])o1)c1ccccc1Oc1ccccc1` [Compound 23, N′-((5-nitrofuran-2-yl)methylene)-2-phenoxybenzohydrazide], the EC50 in assay [2] is over 100 µM. As for `O=[N+]([O-])c1ccc(O)c2ncccc12` [Nitroxoline, reference compound], the IC50 in assay [1] is 27 µM. Also, the EC50 in assay [2] is 2.5 µM. Take `COc1ccc(C(=O)N/N=C/c2ccc(O)cc2)cc1` [Compound 35, N′-(4-hydroxybenzylidene)-4-methoxybenzohydrazide]: in assay [1], the IC50 was over 83 µM. Moreover, in assay [2], the EC50 was over 100 µM. As for `O=C(N/N=C/c1ccc(O)c2ncccc12)c1cccs1` [Compound 3, N′-((8-hydroxyquinolin-5-yl)methylene)thiophene-2-carbohydrazide], in assay [1], the IC50 stood at 29 µM. The EC50 in assay [2] worked out at 74 µM. `O=C(N/N=C/c1ccc([N+](=O)[O-])o1)c1ccncc1` [Compound 19, N′-((5-nitrofuran-2-yl)methylene)isonicotinohydrazide]: the IC50 in assay [1] (setting [3]) was 23 µM. Moreover, the EC50 in assay [2] was 54 µM. Take `O=C(N/N=C/c1ccccc1)c1ccccc1` [Compound 38, N′-benzylidenebenzohydrazide]: in assay [1], the IC50 is over 83 µM. In addition, in assay [2], the EC50 was over 100 µM.

Take `O=C(N/N=C/c1ccc(O)c2ncccc12)c1ccc(NS(=O)(=O)c2cccs2)cc1` [Compound 13, N-(4-(2-((8-hydroxyquinolin-5-yl)methylene)hydrazine-1-carbonyl)phenyl)thiophene-2-sulfonamide]: the IC50 in assay [1] was 1.9 µM. Besides, the EC50 in assay [2] was over 100 µM. Take `COc1ccc(C(=O)NN)cc1` [Compound 42, reference compound]: in assay [1], the IC50 is over 83 µM. Also, the EC50 in assay [2] is over 100 µM. Taken in the same sequence, the figures for `O=C(N/N=C/c1ccc(O)c2ncccc12)c1ccncc1` [Compound 6, N′-((8-hydroxyquinolin-5-yl)methylene)isonicotinohydrazide] were over 83 µM and over 100 µM. For the compound `O=C(N/N=C/c1ccc(O)c2ncccc12)c1ccccc1Oc1ccccc1` [Compound 10, N′-((8-hydroxyquinolin-5-yl)methylene)-2-phenoxybenzohydrazide], the IC50 in assay [1] was 15 µM. Also, in assay [2], the EC50 was over 100 µM. As for `O=C(N/N=C/c1ccc([N+](=O)[O-])o1)c1ccc(NS(=O)(=O)c2cccs2)cc1` [Compound 26, N-(4-(2-((5-nitrofuran-2-yl)methylene)hydrazine-1-carbonyl)phenyl)thiophene-2-sulfonamide], the IC50 in assay [1] amounted to 6 µM. Besides, in assay [2], the EC50 was over 100 µM. For `O=C(N/N=C/c1ccc(O)c2ccccc12)c1ccccc1` [Compound 30, N′-((4-hydroxynaphthalen-1-yl)methylene)benzohydrazide], in assay [1], the IC50 was over 83 µM. Also, in assay [2], the EC50 is over 100 µM. Taken in the same sequence, the figures for `O=C(N/N=C/c1ccc([N+](=O)[O-])o1)c1cccc(Oc2ccccc2)c1` [Compound 24, N′-((5-nitrofuran-2-yl)methylene)-3-phenoxybenzohydrazide] were 2.8 µM and over 100 µM. The corresponding values for `COc1ccc(C(=O)N/N=C/c2ccc(O)c3ccccc23)cc1` [Compound 29, N′-((4-hydroxynaphthalen-1-yl)methylene)-4-methoxybenzohydrazide] are over 83 µM and over 100 µM. For the compound `O=C(N/N=C/c1ccc(O)cc1)c1ccccc1` [Compound 36, N′-(4-hydroxybenzylidene)benzohydrazide], the IC50 in assay [1] is over 83 µM. In addition, in assay [2], the EC50 was over 100 µM.

As to `O=Cc1ccc(O)c2ncccc12` [Compound 40, reference compound], the IC50 in assay [1] is over 83 µM. The EC50 in assay [2] was determined as 11 µM. For the compound `O=C(N/N=C/c1ccc([N+](=O)[O-])o1)c1cccc2ccccc12` [Compound 22, N′-((5-nitrofuran-2-yl)methylene)-1-naphthohydrazide], the IC50 in assay [1] amounted to 5.3 µM. The EC50 in assay [2] is over 100 µM. As for `CCOc1ccc(S(=O)(=O)Nc2ccc(C(=O)N/N=C/c3ccc(O)c4ncccc34)cc2)cc1` [Compound 15, 4-ethoxy-N-(4-(2-((8-hydroxyquinolin-5-yl)methylene)hydrazine-1-carbonyl)phenyl)benzenesulfonamide], the IC50 in assay [1] came to 3.1 µM. In addition, the EC50 in assay [2] was over 100 µM. Consider `O=Cc1ccc([N+](=O)[O-])o1` [Compound 41, reference compound], for which, in assay [1], the IC50 is over 83 µM. Further, the EC50 in assay [2] came to 12 µM. Taken in the same sequence, the figures for `COc1ccc(C(=O)N/N=C/c2ccccc2)cc1` [Compound 37, N′-benzylidene-4-methoxybenzohydrazide] were over 83 µM and over 100 µM. For `COc1ccc(C(=O)N/N=C/c2cccc3ccccc23)cc1` [Compound 33, 4-methoxy-N′-(naphthalen-1-ylmethylene)benzohydrazide], the IC50 in assay [1] is over 83 µM. Besides, in assay [2], the EC50 is over 100 µM.

Consider `O=C1CN(/N=C/c2ccc(O)c3ncccc23)C(=O)N1` [Compound 2, 1-(((8-hydroxyquinolin-5-yl)methylene)amino)imidazolidine-2,4-dione], for which the IC50 in assay [1] was over 83 µM. For the same compound, in assay [2], the EC50 was over 100 µM. `CCN(CC)S(=O)(=O)c1cccc(C(=O)N/N=C/c2ccc(O)c3ncccc23)c1` [Compound 12, N,N-diethyl-3-(2-((8-hydroxyquinolin-5-yl)methylene)hydrazine-1-carbonyl)benzenesulfonamide]: the IC50 in assay [1] amounted to 21 µM. In addition, in assay [2], the EC50 was over 100 µM. `O=C(N/N=C/c1ccc(O)c2ncccc12)c1ccccc1` [Compound 5, N′-((8-hydroxyquinolin-5-yl)methylene)benzohydrazide]: the IC50 in assay [1] was over 83 µM. In addition, the EC50 in assay [2] came to 56 µM. With `O=C(N/N=C/c1ccc([N+](=O)[O-])o1)c1cccs1` [Compound 16, N′-((5-nitrofuran-2-yl)methylene)thiophene-2-carbohydrazide], in assay [1] (setting [3]), the IC50 is 7.7 µM. The EC50 in assay [2] is 82 µM.
